Measured values taken from patent US20220282217A1, “COMPOSITIONS AND METHODS FOR PREPARING T CELL COMPOSITIONS AND USES THEREOF” (priority 2019, published 2022).
One block for each molecule: values may come before it. Where a SMILES comes first, the peptide text is derived from it.

Key:
HLA-B07.02 = HLA-B07.02 (Homo sapiens, UniProt P01889); assay: Class I MHC peptide binding affinity (displacement of radiolabeled reference peptide); settings: Allele B07.02; read-out: Observed Affinity (IC50; (nM))
[1] = molecular target: 293T cells transduced with GATA3 neoORF, expressing the HLA of interest (Homo sapiens, UniProt P01889); assay: Presentation of GATA3 neoantigens: HLA-eluted peptides by targeted MS/MS (PRM) (Table 14); format: cell-based; settings: GATA3 neoORF transduced 293T cells expressing HLA-B*07:02 protein
Experimental: (§1) To assess whether antigens could be processed and presented from the larger polypeptide context, peptides eluted from HLA molecules isolated from cells expressing the genes of interest were analyzed by tandem mass spectrometry (MS/MS).
(§2) Between 50 and 700 million of the transduced cells expressing peptides encoded by the GATA3 neoORF sequence were cultured and peptides were eluted from HLA-peptide complexes using an acid wash. Eluted peptides were then analyzed by targeted MS/MS using PRM. Spectral comparison between peptides derived from GATA3 neoORF and corresponding synthetic peptides were performed to confirm each detection.

CD8+ T cells = assay: Ex vivo induction of antigen-specific CD8 T cells (FLT3L-treated PBMCs), MHC tetramer/multimer readout; format: cell-based, human; set-up: key to Epitope prefixed with '*': positive CD8+ T cell response: The epitopes that are prefixed with ‘*’, were shown to induce positive CD8+ T cell response in either one or both the donors; key to Immunogenicity (#donors/2): positive CD8+ T cell response in either one or both the donors (marked as 1 or 2 in column 6 respectively); positive CD8+ T cell response in either one or both the donors (marked as 1 or 2 in column 6 respectively); settings: HLA-A02:01
Experimental: Step 1: Plate 5 million PBMCs (or cells of interest) in each well of 24 well plate with FLT3L in 2 mL AIM V media Step 2: Peptide loading and maturation—in AIMV 1. Mix peptide pool of interest (except for no peptide condition) with PBMCs (or cells of interest) in respective wells.
3. Mix Maturation cocktail (including TNF-α, IL-1β, PGE1, and IL-7) to each well after incubation. Step 3: Add human serum to each well at a final concentration of 10% by volume and mix. Step 4: Replace the media with fresh RPMI+10% HS media supplemented with IL7+IL15. Step 5: Replace the media with fresh 20/80 media supplemented with IL7+IL15 during the period of incubation every 1-6 days. Step 6: Plate 5 million PBMCs (or cells of interest) in each well of new 6-well plate with FLT3L in 2 ml AIM V media Step 7: Peptide loading and maturation for re-stimulation—(new plates) 1. Mix peptide pool of interest (except for no peptide condition) with PBMCs (or cells of interest) in respective wells
1. […]
MHC tetramers are purchased or manufactured on-site according to methods known by one of ordinary skill, and are used to measure peptide-specific T cell expansion in the immunogenicity assays. […] Cells are acquired on a LSR Fortessa (Becton Dickinson) instrument, and are analyzed by use of FlowJo software (Becton Dickinson). […]

HLA-A02.01 [2] = molecular target: HLA-A02.01 (Homo sapiens, UniProt P04439, D140Y/D185E/D98H/E176V/E277Q/G131W/G231S/I119V/I121R/I166T/I218V/L300P/L318F/N151K/N90K/P208A/P217A/Q86G/Q94H/R138H/R169H/T345S); assay: Class I MHC peptide binding affinity (displacement of radiolabeled reference peptide)
How it was run: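 Displacement format in which varying amounts of peptide compete for 2 days with a radiolabeled reference ligand prebound to class I MHC, residual complex-associated label being measured after gel-filtration separation.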

HLA-A24.02 = assay: Class I MHC peptide binding stability (pMHC-I dissociation, 125I-labeled light chain); set-up: species or system human
HLA-A02.01 [3] = molecular target: T1, HLA-A02.01 (Homo sapiens, UniProt P04439, D140Y/D185E/D98H/E176V/E277Q/G131W/G231S/I119V/I121R/I166T/I218V/N151K/N90K/P208A/P217A/Q86G/Q94H/R138H/R169H); assay: as above
T1 construct: made in house; host or cells: E. coli

Class I MHC = Class I MHC peptide binding affinity, any other or unspecified HLA allele named in the row; set-up: species or system human; settings: EGFR T790M peptides; HLA allele B08.02
HLA-A03.01 = HLA-A03.01 (Homo sapiens, UniProt P04439); assay: Class I MHC peptide binding affinity (displacement of radiolabeled reference peptide); settings: allele A03.01; read-out: Observed Affinity (IC50; (nM))
[4] = molecular target: 293T cells transduced with GATA3 neoORF, expressing the HLA of interest (Homo sapiens, UniProt P04439); assay: Presentation of GATA3 neoantigens: HLA-eluted peptides by targeted MS/MS (PRM) (Table 14); format: cell-based; settings: GATA3 neoORF transduced 293T cells expressing HLA-A*03:01 protein
Experimental: as §1, §2

[5] = tested on: 293T cells transduced with GATA3 neoORF, expressing the HLA of interest; assay: as above; format: cell-based, human; settings: GATA3 neoORF transduced 293T cells expressing HLA-A*11:01 protein
Experimental: as §1, §2

Molecule: VLDCCISLL
Epitope prefixed with '*': positive CD8+ T cell response (CD8+ T cells; in either one or both the donors): *VLDCCISLL
Immunogenicity (#donors/2) (CD8+ T cells; positive CD8+ T cell response, number of donors out of 2): 1

Molecule: CC[C@H](C)[C@H](NC(=O)[C@H](CC(C)C)NC(=O)[C@@H](N)CCC(N)=O)C(=O)N[C@@H](CCSC)C(=O)N[C@@H](CCC(N)=O)C(=O)N[C@@H](CC(C)C)C(=O)N[C@@H](CCSC)C(=O)N1CCC[C@H]1C(=O)N[C@@H](Cc1ccccc1)C(=O)O
Kd (HLA-A02.01 [2]; EGFR T790M peptides, HLA allele A02.01, read-out: Affinity): 193 nM
IC50 (HLA-A02.01 [2]; allele A02.01, read-out: Observed Affinity (IC50, (nM))): 227 nM
Stability (half-life (hr.)) (HLA-A24.02; EGFR T790M peptides, HLA allele A24.02): 22.12 min
Stability (T1/2 (h)) (HLA-A24.02; allele A24.02): 0.4 h
Stability (half-life (hr.)) (HLA-A02.01 [3]; EGFR T790M peptides, HLA allele A02.01): 20.44 min
Stability (T1/2 (h)) (HLA-A02.01 [3]; allele A02.01): 0.3 h
Kd (Class I MHC): 5590 nM

Now from value to molecule, other results behind:

IC50 (HLA-B07.02): 28.2 nM
detected by mass spectrometry (peptide eluted from HLA-peptide complexes) [1]: detected
Molecule: CSCC[C@H](NC(=O)[C@H](Cc1ccc(O)cc1)NC(=O)CNC(=O)[C@H](CC(=O)O)NC(=O)[C@H](CCCNC(=N)N)NC(=O)[C@H](CCCCN)NC(=O)[C@@H]1CCCN1C(=O)[C@@H](N)CCCCN)C(=O)N[C@@H](Cc1ccccc1)C(=O)O (H-KPKRDGYMF-OH; N-terminus and C-terminus assumed)

IC50 (HLA-A03.01): 2.5 nM
detected by mass spectrometry (peptide eluted from HLA-peptide complexes) [4]: detected
Molecule: CC[C@H](C)[C@H](NC(=O)[C@@H](N)CCCCN)C(=O)N[C@@H](CCSC)C(=O)N[C@@H](Cc1ccccc1)C(=O)N[C@@H](C)C(=O)N[C@H](C(=O)N[C@@H](CC(C)C)C(=O)N[C@@H](CCC(N)=O)C(=O)N[C@@H](CCCNC(=N)N)C(=O)O)[C@@H](C)O (H-KIMFATLQR-OH; N-terminus and C-terminus assumed)
detected by mass spectrometry (peptide eluted from HLA-peptide complexes) [5]: detected

IC50 (HLA-B07.02): 98.1 nM
detected by mass spectrometry (peptide eluted from HLA-peptide complexes) [1]: detected
Molecule: CSCC[C@H](NC(=O)[C@H](Cc1ccc(O)cc1)NC(=O)CNC(=O)[C@H](CC(=O)O)NC(=O)[C@H](CCCNC(=N)N)NC(=O)[C@H](CCCCN)NC(=O)[C@@H]1CCCN1C(=O)[C@@H](N)CCCCN)C(=O)N[C@@H](Cc1ccccc1)C(=O)N[C@@H](CC(C)C)C(=O)O (H-KPKRDGYMFL-OH; N-terminus and C-terminus assumed)
